Experimental findings from ChEMBL document CHEMBL1201862, “PubChem BioAssay data set” (2004) are described below.

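Five compound concentrations were applied to cells in 96-well plates for 48 hours; endpoints were derived by simple linear interpolation of the resulting dose-response curve. Here, GI50 denotes the concentration required for 50% inhibition of growth.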 The source made the active and inactive calls. No stated cut-off is given here; in the data, active = GI50 up to about 1.1 µM and inactive = higher. A value given as a limit tells only on which side of the number the result lay.

Assay in all cases: DTP human tumour cell line panel, 48 h
In test [1] the test system is BT-549.
Test [2] has as its system DMS-273.
For test [3], the system named is HOP-18.
Test [4] relates to KM-20L2.
In test [5] the test system is LXFL 529.
Test [6] deals with M19-MEL.
Test [7] relates to SNB-78.
Test [8] has as its system XF498.

Take `Cc1ccc(OCC2OC(n3cnc4c(Cl)nc(Nc5cc(Cl)cc(Cl)c5)nc43)CC2Oc2ccc(C)cc2)cc1` (stereo unspecified): in test [1], the GI50 was > 100 µM (inactive).
In the case of `CCN(CC)CCNc1ccc([N+](=O)[O-])c2nc3ccc(OC)cc3c(N)c12`, the GI50 in test [1] was 1.4 µM (inactive).
For `S=C(N/N=C\C(=N/NC(=S)N1CCCCC1)c1ccccc1)N1CCCCC1`, the GI50 in test [1] was 1.88 µM (inactive).
For the molecule `Cc1nn2c(=O)c([N+](=O)[O-])c(/C=C/c3ccco3)nc2s1`, the GI50 in test [1] is 28.7 µM (inactive).
In the case of `COC1CC(OC2C(C)OC(OC3C(C)OC(OC4C(C)OC(O[C@H]5CC[C@@]6(C)C(=CC[C@]7(O)[C@@H]6C[C@@H](OC(C)=O)[C@@]6(C)[C@]7(O)CC[C@@]6(O)C(C)=O)C5)CC4OC)CC3OC)CC2OC)OC(C)C1O` (stereo partly specified), the GI50 in test [1] is > 25 µM (inactive).
On the same count and under the same terms, the same measure for `CC1=Nc2c(C#N)ncn2N=C(C)C1`: > 100 µM (inactive); for `COc1ccc(S(=O)(=O)N2C(=O)CCC2C(=O)NC(N)=O)cc1` (stereo unspecified): > 100 µM (inactive); for `N[C@H](C(=O)O)[C@@H]1CC(Br)=NO1`: 88.9 µM (inactive).
With `O=C1C(NCCN2CCOCC2)=C(Cl)C(=O)c2ncccc21`, the GI50 in test [1] is 1.29 µM (inactive).
With `O=C1CCCC2(c3ccccc3)Nc3ccccc3N12` (stereo unspecified), the GI50 in test [1] is > 100 µM (inactive).
The same measure, in the same setting: the value for `CC1=C(C)C(=O)OC(C(C)(O)C2(O)CC3OC34C3CC(O)C56OC5C=CC(=O)C6(C)C3CCC42C)C1` (stereo unspecified) was 0.914 µM (active).
With `O=C(N/N=C/c1ccccc1O)c1cccc([N+](=O)[O-])c1`, the GI50 in test [2] is 6.43 µM (inactive); in test [3], 28.5 µM (inactive); in test [4] it was 8.49 µM (inactive); in test [5], 40.8 µM (inactive); in test [6], 12.9 µM (inactive); in test [7] it was > 86.3 µM (inactive). Moreover, in test [8], the GI50 is 92.3 µM (inactive).
`COc1cc(CC2c3cc(OC)c(OC)cc3CCN2C)c(Oc2cc3c(cc2OC)-c2c(O)c(OC)cc4c2C(C3)N(C)CC4)cc1OC` (stereo unspecified): the GI50 in test [1] was 14.8 µM (inactive).
As to `COC(=O)CCC(=O)CC1CC(=O)C2CCCN12` (stereo unspecified), the GI50 in test [2], in test [3], in test [4], in test [5], in test [6] and in test [7] was > 100 µM (inactive) throughout. The GI50 in test [8] was > 100 µM (inactive).
For `COc1ccnc2c1C(=O)c1nc3ccccc3c3ccnc-2c13`, the GI50 in test [1] is 0.397 µM (active).
As to `Cc1ccc2c(c1)C(C(=O)N[C@@H]1C(=O)N3[C@@H]1SC(C)(C)[C@@H]3C(=O)O)OCCC2` (stereo partly specified), the GI50 in test [1] is > 100 µM (inactive).
As for `C/C=C(/C)C(=O)O[C@H](C[C@@H](C)[C@H]1CC(c2ccoc2)OC1=O)[C@@]1(C)C(=O)CCC2O[C@]21C` (stereo partly specified), the GI50 in test [1] was > 100 µM (inactive).
For the molecule `Cc1c2ccncc2c(C)c2c1[nH]c1ccc(OC(C)C)cc12`, the GI50 in test [2] is 0.681 µM (active); in test [3], 0.318 µM (active); in test [4], 1.18 µM (inactive); in test [5] it was 0.787 µM (active); in test [6] it was 1.71 µM (inactive); in test [7], 2.89 µM (inactive). In test [8], the GI50 is 1.52 µM (inactive).
On to `C1CNOCCCONCCCNOCCCONC1`, for which, in test [1], the GI50 is 69.5 µM (inactive).
In the case of `CN1N=C(Nc2ccccc2)Sc2c1cnn(-c1ccccc1)c2=O`, the GI50 in test [2] is > 100 µM (inactive); in test [3], 20 µM (inactive); in test [4], > 100 µM (inactive); in test [5], 79.8 µM (inactive); in test [6], > 100 µM (inactive).
As to `C=CCOC(=O)N1c2ccc(O[Si](C)(C)C(C)(C)C)cc2[C@@]23O[C@@]24[C@@H]1C#C/C=C\C#C[C@]3(O)C(OC)(OC)C[C@@H]4C`, the GI50 in test [1] is > 100 µM (inactive).
`N#CCc1nc(C#N)c(N)o1`: the GI50 in test [1] is > 100 µM (inactive).
On to `CC1(C)CC(=O)C(CC2C(=O)CCCC2=O)C(=O)C1`, for which the GI50 in test [2], in test [3], in test [4], in test [5], in test [6] and in test [7] was > 100 µM (inactive) throughout. Also, in test [8], the GI50 is 33.2 µM (inactive).
Turning to `Cc1ccccc1C(=O)Oc1ccc(Oc2ccccc2)cc1`, the GI50 in test [2], in test [3], in test [4], in test [5], in test [6] and in test [7] was > 100 µM (inactive) each time. In addition, in test [8], the GI50 is > 100 µM (inactive).
With `CN(C)CC1CCCCCCCCCCCCC(CN(C)C)C1=O` (stereo unspecified), the GI50 is 10.4 µM (inactive) in test [2]; 16.2 µM (inactive) in test [3]; 11.9 µM (inactive) in test [4]; 14.9 µM (inactive) in test [5]; 12.6 µM (inactive) in test [6]; 13.5 µM (inactive) in test [7].
`CCc1cc2c(oc3c4ccccc4ccc23)c(=O)[nH]1`: the GI50 in test [1] is > 10 µM (inactive).
On the same count and under the same terms, the value for `CC(C)CCC[C@@H](C)[C@H]1CC[C@H]2[C@@H]3CC[C@H]4C[C@H](N)CC[C@]4(C)[C@H]3CC[C@]12C` was 23.1 µM (inactive); that for `COC1OC(C(=O)O)C2OC(C)(C)OC12` (stereo unspecified) was > 100 µM (inactive).
Regarding `CSc1nnc(SCc2nn3c(=O)cc(C)nc3s2)s1`, the GI50 in test [1] is > 100 µM (inactive).
Take `O=C(N/N=C(COc1ccc(Cl)cc1)\N=C\c1cccnc1)c1ccncc1`: the GI50 in test [1] was > 100 µM (inactive).
Consider `COc1c2cc([N+](=O)[O-])cc1CNC(=O)CN1CCOCCOCCN(CCOCCOCC1)CC(=O)NC2`, for which, in test [1], the GI50 was > 100 µM (inactive).
Same read-out and setting: the value for `O=C(Nc1ccc(Nc2ccc3c(c2)C(=O)c2ccccc2C3=O)c2c1C(=O)c1ccccc1C2=O)c1ccccc1` was > 100 µM (inactive).
On to `COc1cccc([C@@]2(O)c3c(ccc(O)c3OC)[C@H]2OC)c1OC`, for which the GI50 is 38.9 µM (inactive) in test [4], 19.6 µM (inactive) in test [5] and 49.7 µM (inactive) in test [7].
`Nc1c(C(=O)NC23CC4CC(CC(C4)C2)C3)[n+]([O-])c2ccccc2[n+]1[O-]`: the GI50 in test [2], in test [3], in test [4], in test [5], in test [6] and in test [7] was > 100 µM (inactive) in each case. Moreover, the GI50 in test [8] was > 100 µM (inactive).
As for `O=c1[nH]c(=S)c2cc3c(=S)[nH]c(=O)n(CCC(c4ccccc4)(c4ccccc4)c4ccccc4)c3nc2n1CCC(c1ccccc1)(c1ccccc1)c1ccccc1`, the GI50 in test [1] is > 100 µM (inactive).
Turning to `OCCCc1cc(O)c2c(c1)C(CO)C(c1ccc(O)c(O)c1)O2` (stereo unspecified), the GI50 in test [1] was > 100 µM (inactive).
As to `CN1CNc2nc(N)n(C)c(=O)c2C1`, the GI50 in test [1] is > 10 µM (inactive).
Same read-out and setting: the same measure for `Oc1cc(O)c2c(c1)O[C@H](c1cc(O)c(O)c(O)c1)[C@@H](O)C2` [GALLOCATECHIN]: 23.6 µM (inactive); for `OC1OC(c2ccc[nH]2)C(F)(F)C(F)(F)C1(F)F` (stereo unspecified): > 100 µM (inactive).
As for `COc1ccc(-c2cc(=O)c3c(O)c(OC)c(O)c(OC)c3o2)cc1OC`, the GI50 in test [2] was 54.1 µM (inactive); in test [3], 54.3 µM (inactive); in test [4], > 100 µM (inactive); in test [5], 61.1 µM (inactive); in test [6], > 100 µM (inactive); in test [7], 42 µM (inactive). Further, the GI50 in test [8] was 78.3 µM (inactive).
For the molecule `COC(=O)C12CC3CC(C1)CC(C(=O)OC)(C3)C2`, the GI50 in test [2], in test [3], in test [4], in test [5], in test [6] and in test [7] was > 100 µM (inactive) each time. For the same molecule, in test [8], the GI50 was > 100 µM (inactive).
In the case of `COc1ccc2c(c1OC)C(C(Cl)(Cl)Cl)N1CCc3cc4c(cc3C1=C2)OCO4` (stereo unspecified), in test [1], the GI50 was 1.03 µM (active).
For `CCCC1=C(CC)C(C(=O)Nc2c(C)cccc2C)=NC(S)N1` (stereo unspecified), the GI50 in test [2], in test [3], in test [4], in test [5], in test [6] and in test [7] was > 100 µM (inactive) throughout. In test [8], the GI50 was > 100 µM (inactive).
Take `Cc1ccc(S(=O)(=O)NC(=O)C2(Br)S(=O)(=O)OCCOS2(=O)=O)cc1`: the GI50 in test [2], in test [4], in test [5], in test [6], in test [7] and in test [8] was > 100 µM (inactive) in each case.
On to `O=C1CNc2cc(N3CCN(c4ccccc4)CC3)ccc2N1`, for which, in test [1], the GI50 is > 100 µM (inactive).
Take `CCCN1C(=O)CNC(=O)c2[nH]cnc21`: the GI50 in test [3], in test [4], in test [5], in test [6], in test [7] and in test [8] was > 100 µM (inactive) throughout.
Turning to `C1=CC2CCC1CN2CCC1CNc2ccccc21` (stereo unspecified), the GI50 in test [2], in test [3], in test [4], in test [5], in test [6] and in test [7] was > 100 µM (inactive) each time. In addition, the GI50 in test [8] is 52.7 µM (inactive).
For `Cc1cn(CCCCCOC(=O)NC(CCCNC(N)=O)C(=O)O)c(=O)[nH]c1=O` (stereo unspecified), the GI50 in test [1] was > 100 µM (inactive).
For `Nc1nn2c(=O)c3ccccc3nc2s1`, in test [1], the GI50 was 22.6 µM (inactive).
Turning to `CN(C)CCNS(=O)(=O)N(C)C`, the GI50 in test [1] was > 100 µM (inactive).
For the molecule `O=C(O)CS(=O)(=O)C(c1ccccc1)c1ccccc1`, the GI50 in test [1] was > 100 µM (inactive).
The same measure, in the same setting: the same measure for `CCOC(=O)C(C(=O)OCC)=C1NC2(c3ccccc3Nc3ccc(C)cc32)C(C#N)S1` (stereo unspecified): 14 µM (inactive); for `CC(C)=CCCC1(Sc2ccccc2)C(=O)OCC1C=C(C)C` (stereo unspecified): 36.3 µM (inactive).
Regarding `ClCc1nc2cc(Cl)ccc2o1`, the GI50 in test [1] is 14.3 µM (inactive).
For `Cc1cc2c(cc1-c1cc3c(cc1C)C(C(C)C)=C(O)C(=O)/C3=C\Nc1cccc3c(N)cccc13)/C(=C/Nc1cccc3c(N)cccc13)C(=O)C(O)=C2C(C)C`, in test [1], the GI50 is > 100 µM (inactive).
